Reference: patent US6350585B1, “Reagent for assay of amylase isozyme activity” (priority 1998, dated 2002)

What was measured:
[1] = molecular target: T1, S-type amylase (Calibzyme S) (Homo sapiens, UniProt P0DUB6); experiment: amylase isozyme activity assay with sodium azide as activator, S-type amylase sample; format: biochemical; details: for Change in absorbance, Containing Antibody (Composition C) / Change in absorbance, Without antibody (Composition D) / Relative sensitivity / Percent residual enzyme activity: S-type amylase; for Relative sensitivity: G3CNP at 300 mM = 100; for Percent residual enzyme activity: composition C/D
T1 construct: purchased International Reagents Corporation Calibzyme S
T1 sequence (P0DUB6 16-511): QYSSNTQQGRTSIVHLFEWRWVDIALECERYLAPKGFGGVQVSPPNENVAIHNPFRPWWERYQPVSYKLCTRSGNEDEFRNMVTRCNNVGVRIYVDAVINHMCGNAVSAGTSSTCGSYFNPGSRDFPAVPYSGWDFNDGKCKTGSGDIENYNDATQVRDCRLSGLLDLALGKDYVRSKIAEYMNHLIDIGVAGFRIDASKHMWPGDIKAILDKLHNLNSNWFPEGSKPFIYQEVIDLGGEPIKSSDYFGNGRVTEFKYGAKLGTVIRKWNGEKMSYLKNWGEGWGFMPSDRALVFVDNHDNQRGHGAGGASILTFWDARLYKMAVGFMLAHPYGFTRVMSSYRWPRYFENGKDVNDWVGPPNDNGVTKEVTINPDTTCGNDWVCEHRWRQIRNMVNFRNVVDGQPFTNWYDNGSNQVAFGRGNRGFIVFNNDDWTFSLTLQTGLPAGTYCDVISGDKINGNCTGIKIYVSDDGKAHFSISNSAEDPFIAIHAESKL
Experimental: S-type amylase inhibitory antibody 88E8 (manufactured by Roche Diagnostics K.K.) 20 mg/L
S-type amylase inhibitory antibody 66C7 (manufactured by Roche Diagnostics K.K.) 5 mg/L
(§1) Substrate (GalG2CNP (Example) or G3CNP (Comparative Example)) 2.6 mM
(§2) (3) S-type Amylase (Calibzyme S, Manufactured by International Reagents Corporation)
Each of the above-mentioned samples (0.05 mL) was added to respective reagent C and D (3 mL) and the mixtures were left standing at 37° C. for 3 minutes. Then, change in absorbance at 405 nm was assayed and change in absorbance per minute was calculated.
In the Tables, P is the case where P-type amylase was used as the sample, and S is the case where S-type amylase was used. The relative sensitivity of P and S is based on the change in absorbance of G3CNP as 100, wherein sodium azide was 300 mM.
Percent residual enzyme activity and relative sensitivity were calculated by the following formulas.
Percent residual enzyme activity (%)=(change in absorbance of composition C)/(change in absorbance of composition D)×100
Relative sensitivity (%)=(change in absorbance of composition D)/(change in absorbance of Comparative Example wherein sodium azide was 300 mM)×100

[2] = molecular target: T1, S-type amylase (Calibzyme S); experiment: amylase isozyme activity assay with potassium thiocyanate as activator, S-type amylase sample; format: biochemical; details: for Relative sensitivity: G3CNP at 900 mM = 100; for Percent residual enzyme activity: composition A/B
Experimental: A reagent for amylase isozyme activity assay comprising each composition as mentioned below was prepared. In the Table showing the composition, GalG2CNP (Example) is 2-chloro-4-nitrophenyl 4-O-β-D-galactopyranosylmaltoside, and G3CNP (Comparative Example) is 2-chloro-4-nitrophenylmaltotrioside.
S-type amylase-inhibiting antibody 88E8 (manufactured by Roche Diagnostics K.K.) 20 mg/L
S-type amylase-inhibiting antibody 66C7 (manufactured by Roche Diagnostics K.K.) 5 mg/L
as §1, §2
Each sample (0.05 mL was added to the reagent A (3 mL) and the reagent B (3 mL), respectively, and the mixtures were allowed to stand at 37° C. for 3 minutes. Then, the change in absorbance at 405 nm was assayed, and the change in absorbance per minute was calculated. The results are shown in Tables 1 and 2.
In the Tables, P is the case where P-type amylase was used as the sample, and S is the case where S-type amylase was used.
Percent residual enzyme activity (%)=(change in absorbance of composition A)/(change in absorbance of composition B)×100
Relative sensitivity (%)=(change in absorbance of composition B)/(change in absorbance of Comparative Example wherein potassium thiocyanate was 900 mM)×100

Change in absorbance, Containing Antibody (Composition C) ([1]; sodium azide 0 mM): 0.3 mABS/min
Change in absorbance, Without antibody (Composition D) ([1]; sodium azide 0 mM): 4.7 mABS/min
Relative sensitivity ([1]; sodium azide 0 mM): 10.2%
Percent residual enzyme activity ([1]; sodium azide 0 mM): 6.4%
Change in absorbance, Containing Antibody (Composition C) ([1]; sodium azide 30 mM): 0.9 mABS/min
Change in absorbance, Without antibody (Composition D) ([1]; sodium azide 30 mM): 15.7 mABS/min
Relative sensitivity ([1]; sodium azide 30 mM): 34.2%
Percent residual enzyme activity ([1]; sodium azide 30 mM): 5.7%
Change in absorbance, Containing Antibody (Composition C) ([1]; sodium azide 60 mM): 1.0 mABS/min
Change in absorbance, Without antibody (Composition D) ([1]; sodium azide 60 mM): 22.4 mABS/min
Relative sensitivity ([1]; sodium azide 60 mM): 48.8%
Percent residual enzyme activity ([1]; sodium azide 60 mM): 4.5%
Change in absorbance, Containing Antibody (Composition C) ([1]; sodium azide 90 mM): 1.6 mABS/min
Change in absorbance, Without antibody (Composition D) ([1]; sodium azide 90 mM): 28.6 mABS/min
Relative sensitivity ([1]; sodium azide 90 mM): 62.3%
Percent residual enzyme activity ([1]; sodium azide 90 mM): 5.6%
Change in absorbance, Containing Antibody (Composition C) ([1]; sodium azide 120 mM): 1.5 mABS/min
Change in absorbance, Without antibody (Composition D) ([1]; sodium azide 120 mM): 31.0 mABS/min
Relative sensitivity ([1]; sodium azide 120 mM): 67.5%
Percent residual enzyme activity ([1]; sodium azide 120 mM): 4.8%
Change in absorbance, Containing Antibody (Composition C) ([1]; sodium azide 150 mM): 1.6 mABS/min
Change in absorbance, Without antibody (Composition D) ([1]; sodium azide 150 mM): 35.8 mABS/min
Relative sensitivity ([1]; sodium azide 150 mM): 78.0%
Percent residual enzyme activity ([1]; sodium azide 150 mM): 4.5%
Change in absorbance, Containing Antibody (Composition C) ([1]; sodium azide 200 mM): 1.9 mABS/min
Change in absorbance, Without antibody (Composition D) ([1]; sodium azide 200 mM): 41.1 mABS/min
Relative sensitivity ([1]; sodium azide 200 mM): 89.5%
Percent residual enzyme activity ([1]; sodium azide 200 mM): 4.6%
Change in absorbance, Containing Antibody (Composition C) ([1]; sodium azide 250 mM): 2.2 mABS/min
Change in absorbance, Without antibody (Composition D) ([1]; sodium azide 250 mM): 44.5 mABS/min
Relative sensitivity ([1]; sodium azide 250 mM): 96.9%
Percent residual enzyme activity ([1]; sodium azide 250 mM): 4.9%
Change in absorbance, Containing Antibody (Composition C) ([1]; sodium azide 300 mM): 2.3 mABS/min
Change in absorbance, Without antibody (Composition D) ([1]; sodium azide 300 mM): 45.9 mABS/min
Relative sensitivity ([1]; sodium azide 300 mM): 100.0%
Percent residual enzyme activity ([1]; sodium azide 300 mM): 5.0%
percent inhibition of S-type amylase ([1]; irrespective of sodium azide concentrations, FIG. 4 and FIG. 5): around 95%
Change in absorbance, Containing Antibody (Composition A) ([2]; potassium thiocyanate 0 mM): 0.5 mABS/min
Change in absorbance, Without antibody (Composition B) ([2]; potassium thiocyanate 0 mM): 4.9 mABS/min
Relative sensitivity ([2]; potassium thiocyanate 0 mM): 11.0%
Percent residual enzyme activity ([2]; potassium thiocyanate 0 mM): 10.2%
Change in absorbance, Containing Antibody (Composition A) ([2]; potassium thiocyanate 50 mM): 0.7 mABS/min
Change in absorbance, Without antibody (Composition B) ([2]; potassium thiocyanate 50 mM): 14.8 mABS/min
Relative sensitivity ([2]; potassium thiocyanate 50 mM): 33.1%
Percent residual enzyme activity ([2]; potassium thiocyanate 50 mM): 4.7%
Change in absorbance, Containing Antibody (Composition A) ([2]; potassium thiocyanate 100 mM): 0.9 mABS/min
Change in absorbance, Without antibody (Composition B) ([2]; potassium thiocyanate 100 mM): 21.9 mABS/min
Relative sensitivity ([2]; potassium thiocyanate 100 mM): 49.0%
Percent residual enzyme activity ([2]; potassium thiocyanate 100 mM): 4.1%
Change in absorbance, Containing Antibody (Composition A) ([2]; potassium thiocyanate 140 mM): 1.3 mABS/min
Change in absorbance, Without antibody (Composition B) ([2]; potassium thiocyanate 140 mM): 26.6 mABS/min
Relative sensitivity ([2]; potassium thiocyanate 140 mM): 59.5%
Percent residual enzyme activity ([2]; potassium thiocyanate 140 mM): 4.9%
Change in absorbance, Containing Antibody (Composition A) ([2]; potassium thiocyanate 200 mM): 1.5 mABS/min
Change in absorbance, Without antibody (Composition B) ([2]; potassium thiocyanate 200 mM): 31.4 mABS/min
Relative sensitivity ([2]; potassium thiocyanate 200 mM): 70.2%
Percent residual enzyme activity ([2]; potassium thiocyanate 200 mM): 4.8%
Change in absorbance, Containing Antibody (Composition A) ([2]; potassium thiocyanate 300 mM): 2.2 mABS/min
Change in absorbance, Without antibody (Composition B) ([2]; potassium thiocyanate 300 mM): 39.7 mABS/min
Relative sensitivity ([2]; potassium thiocyanate 300 mM): 88.8%
Percent residual enzyme activity ([2]; potassium thiocyanate 300 mM): 5.5%
Change in absorbance, Containing Antibody (Composition A) ([2]; potassium thiocyanate 400 mM): 3.3 mABS/min
Change in absorbance, Without antibody (Composition B) ([2]; potassium thiocyanate 400 mM): 43.2 mABS/min
Relative sensitivity ([2]; potassium thiocyanate 400 mM): 96.6%
Percent residual enzyme activity ([2]; potassium thiocyanate 400 mM): 7.6%
Change in absorbance, Containing Antibody (Composition A) ([2]; potassium thiocyanate 500 mM): 4.6 mABS/min
Change in absorbance, Without antibody (Composition B) ([2]; potassium thiocyanate 500 mM): 45.8 mABS/min
Relative sensitivity ([2]; potassium thiocyanate 500 mM): 102.5%
Percent residual enzyme activity ([2]; potassium thiocyanate 500 mM): 10.0%
Change in absorbance, Containing Antibody (Composition A) ([2]; potassium thiocyanate 600 mM): 5.4 mABS/min
Change in absorbance, Without antibody (Composition B) ([2]; potassium thiocyanate 600 mM): 47.3 mABS/min
Relative sensitivity ([2]; potassium thiocyanate 600 mM): 105.8%
Percent residual enzyme activity ([2]; potassium thiocyanate 600 mM): 11.4%
Change in absorbance, Containing Antibody (Composition A) ([2]; potassium thiocyanate 700 mM): 7.0 mABS/min
Change in absorbance, Without antibody (Composition B) ([2]; potassium thiocyanate 700 mM): 47.1 mABS/min
Relative sensitivity ([2]; potassium thiocyanate 700 mM): 105.4%
Percent residual enzyme activity ([2]; potassium thiocyanate 700 mM): 14.9%
Change in absorbance, Containing Antibody (Composition A) ([2]; potassium thiocyanate 800 mM): 8.4 mABS/min
Change in absorbance, Without antibody (Composition B) ([2]; potassium thiocyanate 800 mM): 45.8 mABS/min
Relative sensitivity ([2]; potassium thiocyanate 800 mM): 102.5%
Percent residual enzyme activity ([2]; potassium thiocyanate 800 mM): 18.3%
Change in absorbance, Containing Antibody (Composition A) ([2]; potassium thiocyanate 900 mM): 10.0 mABS/min
Change in absorbance, Without antibody (Composition B) ([2]; potassium thiocyanate 900 mM): 44.7 mABS/min
Relative sensitivity ([2]; potassium thiocyanate 900 mM): 100.0%
Percent residual enzyme activity ([2]; potassium thiocyanate 900 mM): 22.4%
Structure (SMILES): O=[N+]([O-])c1ccc(O[C@H]2O[C@H](CO)[C@@H](O[C@H]3O[C@H](CO)[C@@H](O[C@H]4O[C@H](CO)[C@@H](O)[C@H](O)[C@H]4O)[C@H](O)[C@H]3O)[C@H](O)[C@H]2O)c(Cl)c1 [Example G3CNP, 2-chloro-4-nitrophenylmaltotrioside, reference compound]
